Data from US20120136033A1, “Small Molecule Antagonists of Phosphatidylinositol-3,4,5-Triphosphate (PIP3) and Uses Thereof” (President and Fellows of Harvard College, priority 2009, published 2012).

What was measured:
[1] = target: T1, PDK1 PH domain (Homo sapiens, UniProt O15530); test: FP assay, PIP3 binding to PDK1 PH domain; settings: 15 nM TMR-PIP3, 100 nM PDK1 PH domain, 0-200 μM
T1 construct: 100 nM 441-551 a.a. region of human PDK1; made in house; host or cells: E. coli BL21(DE3)
Experimental: FIG. 4 is a graph depicting concentration-dependent competitive inhibition of PIP3-PH domain interaction by PIT-1 and PIT-2. 15 nM TMR-conjugated PIP3 were incubated with 100 nM PDK1 PH domain in the presence or absence of the indicated concentrations of PITs (0-200 μM) for 30 min, followed by FP measurement.
In order to identify compounds that disrupt the interaction between PIP3 and PH domains, a high-throughput fluorescence polarization (FP)-binding assay was developed using recombinant 1-123 amino acid N-terminal fragment of human Akt1 (also referred to herein simply as Akt), encompassing the PH domain (PH123 protein), and fluorescent NBD-labeled PIP3 molecule. The amino acid sequence of human Akt1 is publicly available as, for example, GenBank Accession No. NP_001014432.1 (SEQ ID NO:1), and the corresponding DNA sequence is publicly available as, for example, GenBank Accession No. NM_001014432. Briefly, 5 μM recombinant GST fusion proteins containing 1-123 a.a. N-terminal fragment of human Akt1 (PH 123) or 100 nM 441-551 a.a. region of human PDK1 were incubated with 15 nM TMR-labeled PIP3, PIP2, or PIP5 in buffer containing 50 mM Tris-HCl (pH 7.5), 150 mM NaCl, and 5 mM b-ME for 15 min at room temperature in the dark. FP values were determined using Wallac Victor 3 plate reader. […]

[2] = target: eIF-1 (Homo sapiens, UniProt P41567); test: NMR HSQC specificity control, eIF-1; format: binding
Chain of eIF-1 (P41567 whole entry, species assumed, the tested form may be a part): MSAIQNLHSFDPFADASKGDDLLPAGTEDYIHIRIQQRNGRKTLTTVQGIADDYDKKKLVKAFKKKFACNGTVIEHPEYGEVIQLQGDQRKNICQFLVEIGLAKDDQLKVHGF

[3] = target: T2, Akt PH domain (Homo sapiens, UniProt P31749); test: PH domain translocation assay, GFP-fused Akt PH domain; format: cell-based; settings: 100 μM, 2 hr, PDGF stimulation
T2 construct: Akt PH domain-GFP, VAV2-GFP and VAV3-GFP vectors were generous gifts of Dr. Joanne Brugge; expressed in transfected cells
T2 sequence (P31749 5-108 limits assumed): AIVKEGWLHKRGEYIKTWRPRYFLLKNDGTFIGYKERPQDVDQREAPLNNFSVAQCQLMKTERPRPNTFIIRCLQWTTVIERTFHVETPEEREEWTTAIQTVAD
Experimental: Cells were transfected with the corresponding GFP-fusion vectors, serum starved overnight, and incubated with 100 μM PITs or PIT-1is for 2 hr, followed by stimulation with 100 ng/ml PDGF or 250 ng/ml PMA for 5 min. The translocation was analyzed using fluorescent microscope and was quantitated by counting the number of cells with translocated PH domains in five random fields.
To begin characterizing cellular activity of PITs, a PH domain translocation assay was performed, measuring PIP3-induced association of GFP-fused PH domains with the plasma membrane. This method provides useful means for monitoring status of the PH domain/PIP3 binding in the intact cells. Varnai P et al. (1999) J Biol Chem 274:10983-9. Several PH-domain-containing proteins, which are known to bind PIP3 specifically and efficiently, were examined. […] Oikawa T et al. (2004) Nat Cell Biol 6:420-6.

[4] = test system: U87MG cells; test: cell death with pan-caspase inhibitor zVAD.fmk, Sytox assay; format: cell-based, human; settings: 100 μM zVAD.fmk, 24 hr
Experimental: FIG. 11 is a bar graph depicting that cell death triggered by PIT-1 alone or in combination with TRAIL is inhibited by pan-caspase inhibitor zVAD.fmk. U87MG cells were incubated with or without 100 μM zVAD.fmk together with PIT-1 (25, 50, 100 μM) in the presence or absence of 10 ng/ml TRAIL for 24 hr, and analyzed by Sytox cell death assay.
Based on the critical role of PIP3-dependent Akt signaling in the regulation of cell survival, the effect of PIT-1 on the cancer cell viability was tested. […] For the ATP assay, a luminescence-based commercial kit (CellTiter-Glo, Promega, Madison, Wis.) was used. Thirty microliters of cell lysis/ATP detection reagent was added to each well, mixed for 10 min at room temperature, and the luminescence was measured using a Wallac Victor 3 plate reader (Perkin-Elmer, Wellesley, Mass.). […] Twenty microliters of the combined MTS/PMS solution was added into each well, incubated for 4 hr at 37° C., and the absorbance at 490 nm was measured using a Wallac Victor 3 plate reader. For the Sytox cell death assay, measuring loss of plasma membrane integrity, cells were incubated with 1 μM Sytox Green reagent (Molecular Probes, Eugene, Oreg.) for 30 min at 37° C. and the fluorescence intensity was measured using Wallac Victor 3 plate reader with excitation at 485 nm and emission at 545 nm. […]

[5] = test system: human cancer cells; test: transwell (Boyden chamber) migration of cancer cells; format: cell-based; settings: for inhibition of cancer cell migration: transwell / wound healing models
Experimental: Two models of cell migration were used, a transwell migration model and a wound closure model. Migration of cancer and endothelial cells was evaluated using 24-transwell Boyden chamber (Costar, Bedford, Mass.) with a polystyrene membrane (6.5 mm diameter, 10 μm thickness, and 8 μm pore size). Cells were suspended in serum-free media and seeded in the upper compartment of each well (2×10^4 cells/well) in the presence or absence of different compounds at the indicated concentrations. The lower compartment contained 600 μl of serum-free culture media supplemented with growth factors. After an 8-hr incubation at 37° C., cells were fixed and stained with 0.1% crystal violet. Non-migrating cells on the upper surface of the filter were removed, and the stained cells that migrated to the lower side were photographed using a phase-contrast microscope (Nikon, Japan) in five random fields. The cells were lysed with 10% acetic acid, and colorimetric determination was made at 595 nm using Wallac Victor 3 plate reader.

T1 sequence (O15530 441-551): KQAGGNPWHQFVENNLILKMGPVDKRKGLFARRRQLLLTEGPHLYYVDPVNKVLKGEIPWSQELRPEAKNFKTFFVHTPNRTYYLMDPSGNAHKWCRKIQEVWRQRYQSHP

| SMILES | inhibition of binding of PIP3 to the PH domain of PDK1 [1] | changes in HSQC spectrum of eIF-1 [2] | inhibition of translocation of Akt PH domain to the plasma membrane [3] | cell death alone or with TRAIL in presence of zVAD.fmk [4] | growth factor-induced transwell migration of human cancer cells ([5]; 8 hr) | inhibition of cancer cell migration [5] |
| --- | --- | --- | --- | --- | --- | --- |
| O=C(NC(=S)Nc1cc([N+](=O)[O-])cc(Cl)c1O)c1ccccc1 [PIT-1] | inhibited binding | did not elicit any changes | significantly inhibited | inhibited by a pan-caspase inhibitor zVAD.fmk | substantially inhibited | much stronger than that of Akt kinase inhibitor VIII |
| O=C1NC(=S)S/C1=C\c1cc(O)c([N+](=O)[O-])cc1Cc1ccccc1 [PIT-2] | inhibited binding | – | significantly inhibited | inhibited by a pan-caspase inhibitor zVAD.fmk | – | efficiently inhibited cell migration |
